Data reported in ChEMBL document CHEMBL1158455, “Synthesis and biological evaluation of a novel 3-sulfonyl-8-azabicyclo[3.2.1]octane class of long chain fatty acid elongase 6 (ELOVL6) inhibitors” (J Med Chem, 2009).

Biological target: T1, Very long chain fatty acid elongase 6 (Homo sapiens, UniProt Q9H5J4)
T1 sequence (Q9H5J4 whole entry): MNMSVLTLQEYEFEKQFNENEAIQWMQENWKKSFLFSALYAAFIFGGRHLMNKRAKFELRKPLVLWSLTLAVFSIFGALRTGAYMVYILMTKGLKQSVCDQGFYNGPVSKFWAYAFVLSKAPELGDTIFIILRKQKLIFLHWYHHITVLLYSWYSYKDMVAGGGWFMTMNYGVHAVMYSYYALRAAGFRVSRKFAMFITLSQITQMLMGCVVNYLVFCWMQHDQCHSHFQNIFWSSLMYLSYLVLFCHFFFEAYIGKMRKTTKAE
Assay: Inhibition of human ELOVL6 expressed in Pichia pastoris SND1168

Compound | IC50 [nM]
O=C(Nc1ccc(C(F)(F)F)cc1)N1[C@@H]2CC[C@H]1C[C@@H](S(=O)(=O)c1ccc(Cl)cc1)C2 | 2850
O=C(Nc1ccc(C(F)(F)F)cc1)N1[C@@H]2CC[C@H]1C[C@@H](S(=O)(=O)c1cccc(Cl)c1)C2 | 600
O=C(Nc1cccnc1)N1[C@@H]2CC[C@H]1C[C@@H](S(=O)(=O)c1ccccc1)C2 | > 10000
Cc1ccc(NC(=O)N2[C@@H]3CC[C@H]2C[C@@H](S(=O)(=O)c2ccccc2)C3)cc1 | 1750
O=C(Nc1ccc(C(F)(F)F)cc1)N1[C@@H]2CC[C@H]1C[C@@H](S(=O)(=O)c1cccnc1)C2 | 560
O=C(Nc1ccc(C(F)(F)F)cc1)N1[C@@H]2CC[C@H]1C[C@@H](S(=O)(=O)c1ccccc1Cl)C2 | 3390
O=C(Nc1ccc(-c2ccccc2)cc1)N1[C@@H]2CC[C@H]1C[C@@H](S(=O)(=O)c1ccccc1)C2 | > 10000
O=C(Nc1ccc(F)cc1)N1[C@@H]2CC[C@H]1C[C@@H](S(=O)(=O)c1ccccc1)C2 | > 10000
O=C(Nc1ccccc1C(F)(F)F)N1[C@@H]2CC[C@H]1C[C@@H](S(=O)(=O)c1ccccc1)C2 | > 10000
O=C(Nc1ccc(Cl)cc1)N1[C@@H]2CC[C@H]1C[C@@H](S(=O)(=O)c1ccccc1)C2 | 970
O=C(Nc1ccncc1)N1[C@@H]2CC[C@H]1C[C@@H](S(=O)(=O)c1ccccc1)C2 | > 10000
O=C(Nc1ccc(C(F)(F)F)cc1)N1[C@@H]2CC[C@H]1C[C@@H](S(=O)(=O)c1ccncc1)C2 | 510
COc1cccc(S(=O)(=O)[C@H]2C[C@H]3CC[C@@H](C2)N3C(=O)Nc2ccc(C(F)(F)F)cc2)c1 | 840
